Read-outs that look alike come from different tables or passages of the source.
Assays:
Type in all cases: biochemical
[1] = biological target: T1, Recombinant human HDAC1 (Homo sapiens, UniProt Q13547); experiment: Human HDAC enzyme inhibitor Fluor-de-Lys assay, HDAC1
T1 construct: FLAG (C); made in house
How it was run: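 Fluor-de-Lys format at room temperature (23° C.): compounds titrated 10-point, 1:3, preincubated with HDAC before substrate addition; HDAC1 run at 0.3 nM enzyme with 20 μM BML-KI104. Developer with excess HDAC inhibitor ends the reaction, and trypsin-liberated AMC fluorescence is the read-out.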

[2] = biological target: T2, HDAC6 (Homo sapiens, UniProt Q9UBN7); experiment: Human HDAC enzyme inhibitor Fluor-de-Lys assay, HDAC6
T2 sequence (Q9UBN7 1-1215): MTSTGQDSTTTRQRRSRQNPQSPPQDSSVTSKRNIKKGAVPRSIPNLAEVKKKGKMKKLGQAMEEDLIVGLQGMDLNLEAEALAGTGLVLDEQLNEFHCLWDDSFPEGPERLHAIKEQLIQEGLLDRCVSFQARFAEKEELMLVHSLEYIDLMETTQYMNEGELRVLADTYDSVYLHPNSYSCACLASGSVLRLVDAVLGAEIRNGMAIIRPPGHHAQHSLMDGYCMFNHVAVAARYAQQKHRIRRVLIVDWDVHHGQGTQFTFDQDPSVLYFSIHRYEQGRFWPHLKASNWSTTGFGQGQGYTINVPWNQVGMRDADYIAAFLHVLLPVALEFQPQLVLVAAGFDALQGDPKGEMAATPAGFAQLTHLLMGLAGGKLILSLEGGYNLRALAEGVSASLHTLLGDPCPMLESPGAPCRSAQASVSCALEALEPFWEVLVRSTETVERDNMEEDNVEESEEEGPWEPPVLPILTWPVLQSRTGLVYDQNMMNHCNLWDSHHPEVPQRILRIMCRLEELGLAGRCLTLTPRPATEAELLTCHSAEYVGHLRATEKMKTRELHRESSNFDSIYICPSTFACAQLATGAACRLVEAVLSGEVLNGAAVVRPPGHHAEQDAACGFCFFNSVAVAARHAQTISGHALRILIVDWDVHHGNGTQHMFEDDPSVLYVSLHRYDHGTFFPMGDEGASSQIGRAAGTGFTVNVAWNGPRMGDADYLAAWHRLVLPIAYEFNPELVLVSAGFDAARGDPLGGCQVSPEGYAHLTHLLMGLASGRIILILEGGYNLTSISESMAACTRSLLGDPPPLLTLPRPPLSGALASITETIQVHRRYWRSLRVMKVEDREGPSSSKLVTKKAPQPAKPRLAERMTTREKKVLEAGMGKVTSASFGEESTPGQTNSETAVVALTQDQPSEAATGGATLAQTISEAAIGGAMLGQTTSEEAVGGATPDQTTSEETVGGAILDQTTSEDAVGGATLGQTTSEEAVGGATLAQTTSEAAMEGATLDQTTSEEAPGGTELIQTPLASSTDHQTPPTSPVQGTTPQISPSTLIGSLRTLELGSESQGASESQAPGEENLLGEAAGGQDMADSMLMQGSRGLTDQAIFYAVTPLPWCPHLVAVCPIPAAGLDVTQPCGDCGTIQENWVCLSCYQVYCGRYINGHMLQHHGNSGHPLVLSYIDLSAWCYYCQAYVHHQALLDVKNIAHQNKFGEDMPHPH

[3] = biological target: T3, Recombinant human HDAC2 (Homo sapiens, UniProt Q92769); experiment: Human HDAC enzyme inhibitor Fluor-de-Lys assay, HDAC2
T3 construct: Full length human HDAC2-FLAG was expressed in baculovirus infected Sf9 cells; FLAG (C); made in house; host or cells: Sf9 (baculovirus)
How it was run: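 Fluor-de-Lys format at room temperature (23° C.): compounds titrated 10-point, 1:3, preincubated with HDAC before substrate addition. Developer with excess HDAC inhibitor ends the reaction, and trypsin-liberated AMC fluorescence is the read-out.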

[4] = biological target: T4, Recombinant human HDAC8 (Homo sapiens, UniProt Q9BY41); experiment: Human HDAC enzyme inhibitor Fluor-de-Lys assay, HDAC8
T4 construct: purchased Enzo Life Sciences BML-SE145-0100
T4 sequence (Q9BY41 1-377): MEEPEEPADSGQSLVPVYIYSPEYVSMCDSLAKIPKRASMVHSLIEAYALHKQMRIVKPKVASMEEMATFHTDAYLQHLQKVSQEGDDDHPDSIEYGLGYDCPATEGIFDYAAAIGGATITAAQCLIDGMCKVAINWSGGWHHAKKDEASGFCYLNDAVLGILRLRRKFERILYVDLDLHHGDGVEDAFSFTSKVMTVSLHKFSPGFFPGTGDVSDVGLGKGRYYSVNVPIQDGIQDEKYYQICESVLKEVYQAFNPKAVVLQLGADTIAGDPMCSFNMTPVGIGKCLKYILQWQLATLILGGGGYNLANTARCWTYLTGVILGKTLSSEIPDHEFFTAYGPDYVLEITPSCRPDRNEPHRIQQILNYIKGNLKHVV

[5] = recombinant human HDAC1, Fluor-de-Lys assay
[6] = recombinant human HDAC2, Fluor-de-Lys assay
[7] = recombinant human HDAC8, Fluor-de-Lys assay

T3 sequence (Q92769 whole entry): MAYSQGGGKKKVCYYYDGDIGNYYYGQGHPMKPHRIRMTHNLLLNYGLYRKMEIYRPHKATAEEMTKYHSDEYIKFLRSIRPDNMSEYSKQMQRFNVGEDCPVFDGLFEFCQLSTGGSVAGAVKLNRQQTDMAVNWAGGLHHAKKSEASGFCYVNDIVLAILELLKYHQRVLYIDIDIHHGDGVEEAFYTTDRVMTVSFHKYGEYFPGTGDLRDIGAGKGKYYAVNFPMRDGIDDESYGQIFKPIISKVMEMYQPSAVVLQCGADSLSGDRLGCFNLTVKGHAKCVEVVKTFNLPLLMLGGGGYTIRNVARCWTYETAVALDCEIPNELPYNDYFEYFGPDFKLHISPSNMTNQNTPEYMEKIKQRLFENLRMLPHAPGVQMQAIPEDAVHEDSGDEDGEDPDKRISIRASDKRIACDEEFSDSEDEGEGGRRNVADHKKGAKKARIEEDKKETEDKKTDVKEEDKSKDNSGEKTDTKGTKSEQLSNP
T1 sequence (Q13547 whole entry): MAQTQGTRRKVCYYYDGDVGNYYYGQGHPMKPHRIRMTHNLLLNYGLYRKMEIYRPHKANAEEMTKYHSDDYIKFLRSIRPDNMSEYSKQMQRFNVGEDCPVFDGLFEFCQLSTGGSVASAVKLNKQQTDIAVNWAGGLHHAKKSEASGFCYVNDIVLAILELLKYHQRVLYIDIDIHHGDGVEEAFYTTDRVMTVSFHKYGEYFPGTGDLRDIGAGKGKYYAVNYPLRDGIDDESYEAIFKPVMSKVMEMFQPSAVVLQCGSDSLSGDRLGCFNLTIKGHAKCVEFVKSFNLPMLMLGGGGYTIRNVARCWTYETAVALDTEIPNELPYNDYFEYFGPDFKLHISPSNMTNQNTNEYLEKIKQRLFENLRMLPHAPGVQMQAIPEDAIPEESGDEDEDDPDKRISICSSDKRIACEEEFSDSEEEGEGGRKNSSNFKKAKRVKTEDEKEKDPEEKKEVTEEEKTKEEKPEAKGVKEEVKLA

| SMILES | IC50 [1, 5] | IC50 ([2]; HDAC6, Fluor-de-Lys assay) | IC50 [3, 6] | IC50 [4, 7] | IC50 [1] | IC50 [2] | IC50 [3] | IC50 [4] |
| --- | --- | --- | --- | --- | --- | --- | --- | --- |
| CCC(=O)CCCCC[C@H](NC(=O)C1CC12CCN(CC)CC2)c1nc(-c2ccc(F)cc2)[nH]c1-c1ccn(C)c1 (some centres unmarked) [Compound 251] | 2.73 nM | 41700 nM | 12.6 nM | 29.4 µM | – | – | – | – |
| CCC(=O)CCCCC[C@H](NC(=O)[C@H]1CC12CCN(C)CC2)c1ncc(-c2ccc3cc(C#N)ccc3c2)[nH]1 [Compound 90] | – | – | – | – | 0.28 nM | 1010 nM | 1.6 nM | 2.64 µM |
| CCC(=O)CCCCC[C@H](NC(=O)C1CC12CCN(CC)CC2)c1nc(-c2ccc(F)cc2)[nH]c1-c1cccs1 (some centres unmarked) [Compound 252] | 56.6 nM | 33900 nM | 185 nM | 29.6 µM | – | – | – | – |
| CCC(=O)CCCCC[C@H](NC(=O)[C@H]1CC12CCN(C)CC2)c1ncc(-c2ccc(C)nc2OC)[nH]1 [Compound 268] | 3.89 nM | 1780 nM | 17.2 nM | 6.08 µM | – | – | – | – |
| CCC(=O)CCCCC[C@H](NC(=O)C1CCC2(CC1)CN(C(C)C)C2)c1ncc(-c2cc3ccccc3nc2OC)[nH]1 [Compound 272] | 2.08 nM | 449 nM | 8.2 nM | 1.25 µM | – | – | – | – |
| CCC(=O)CCCCC[C@H](NC(=O)C1CCC2(CC1)CNC2)c1nnc(-c2cc3ccccc3nc2OC)o1 [Compound 299] | 12.2 nM | 2360 nM | 35.8 nM | 27.8 µM | – | – | – | – |
| CCC(=O)CCCCC[C@H](NC(=O)[C@H]1CC12CN(C)C2)c1ncc(-c2cc3ccc(C)nc3cc2OC)o1 (single isomer, unassigned) [Compound 230] | 0.4 nM | 396 nM | 2.7 nM | > 0.9 µM | – | – | – | – |
| CCC(=O)CCCCC[C@H](NC(=O)[C@H]1CC12CCN(C(C)C)CC2)c1ncc(-c2ccc3nc(C)ccc3c2)[nH]1 [Compound 83] | – | – | – | – | < 1.5 nM | 2620 nM | < 1.5 nM | 15.2 µM |
| CCC(=O)CCCCC[C@H](NC(=O)[C@H]1CC12CCN(C)CC2)c1ncc(-c2cnc3cccnc3c2)[nH]1 [Compound 259] | 23.8 nM | 3140 nM | 95 nM | 6.14 µM | – | – | – | – |
| CCCn1cc(-c2[nH]c(-c3ccc(F)cc3)nc2C(CCCCCC(=O)CC)NC(=O)C2CC23CCN(CC)CC3)cn1 (centres unmarked) [Compound 254] | 29.4 nM | > 45000 nM | 131 nM | 38.7 µM | – | – | – | – |
| CCC(=O)CCCCC[C@H](NC(=O)C1=NOC2(CCN(C)CC2)C1)c1ncc(-c2cc3cccnc3cc2OC)o1 [Compound 223] | 1.54 nM | 237 nM | 9.7 nM | > 0.9 µM | – | – | – | – |
| CCC(=O)CCCCCC(NC(=O)C1CCC2(CC1)OC(=O)c1ccncc12)c1nnc(-c2cc3ccccc3nc2OC)o1 (centres unmarked) [Compound 363] | 85.5 nM | 2040 nM | 234 nM | 25.5 µM | – | – | – | – |
| CCC(=O)CCCCC[C@@H](NC(=O)C1CCC2(CC1)CN(C)C2)c1ncc(-c2ccccc2)[nH]1 [Compound 310] | 33 nM | 6050 nM | 167 nM | 6.5 µM | – | – | – | – |
| CCC(=O)CCCCC[C@H](NC(=O)[C@H]1CC12CCN(C)CC2)c1ncc(-c2ccc3ccc(C)nc3c2F)[nH]1 [Compound 354] | 1.82 nM | 354 nM | 11.3 nM | 0.798 µM | – | – | – | – |
